Test results from patent US12655124B2, “Heterocyclic compounds as modulators of stimulator of interferon genes (STING)” (RYVU THERAPEUTICS S.A., priority 2019, dated 2026).

Biological target: human STING (Homo sapiens, UniProt Q86WV6)
Test: Fluorescence Thermal Shift assay (hSTING FTS binding assay);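 also: STING preincubated with compound for 20 min in HEPES NaCl buffer pH 7.5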
Details: ΔTm, STING 0.1 mg/mL, SyproOrange, 25 to 99° C.
Experimental: Fluorescence Thermal Shift Assay Compounds of the present invention were tested for binding to human STING in Fluorescence Thermal Shift assay. […] Final STING concentration was 0.1 mg/mL. Thermal unfolding was performed in Real-Time PCR QuantStudio 6 Flex System (Applied Biosystems), from 25 to 99° C., with continuous ramp mode and ramp rate 0.033° C./s. The data were analyzed using Protein Thermal Shift Software (ThermoFisher).

human STING, sequence (Q86WV6 whole entry H232R): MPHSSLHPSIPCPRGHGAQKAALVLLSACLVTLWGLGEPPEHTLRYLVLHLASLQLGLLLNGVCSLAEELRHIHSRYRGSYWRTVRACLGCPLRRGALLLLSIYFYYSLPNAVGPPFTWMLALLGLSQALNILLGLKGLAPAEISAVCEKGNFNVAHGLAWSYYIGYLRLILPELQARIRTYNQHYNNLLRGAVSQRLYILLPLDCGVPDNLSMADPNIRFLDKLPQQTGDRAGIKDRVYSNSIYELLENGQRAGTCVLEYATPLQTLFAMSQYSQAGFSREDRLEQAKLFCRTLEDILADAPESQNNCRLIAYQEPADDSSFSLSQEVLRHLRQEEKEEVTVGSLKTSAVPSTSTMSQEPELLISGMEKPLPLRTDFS

SMILES | hSTING FTS binding assay (ΔT ° C.)
Cc1ccc(N2CCC[C@H](N(Cc3ccnc(C)c3)Cc3cn(C4CC4)c4cc(N5CCC6NCCC6C5)c(F)cc4c3=O)C2)cn1 (stereo partly drawn) [Example 68, 1-cyclopropyl-6-fluoro-3-({[(3S)-1-(6-methylpyridin-3-yl)piperidin-3-yl][(2-methylpyridin-4-yl)methyl]amino}methyl)-7-{octahydro-1H-pyrrolo[3,2-c]pyridin-5-yl}-1,4-dihydroquinolin-4-one] | +++ (ΔTm≥20° C.)
Cc1cc(CN(Cc2cn(C)c3ccccc3c2=O)[C@H]2CCCN(c3ccc(N)nc3)C2)ccn1 [Example 2, 3-({[(3S)-1-(6-Aminopyridin-3-yl)piperidin-3-yl][(2-methylpyridin-4-yl)methyl]amino}methyl)-1-methyl-1,4-dihydroquinolin-4-one] | +++ (ΔTm≥20° C.)
Cc1ccc(N2CCC[C@H](N(Cc3ccnc(C)c3)Cc3cn(C4CC4)c4nc(N5CC[C@@H](O)C5)c(F)cc4c3=O)C2)cn1.Cl [Example 37, 1-cyclopropyl-6-fluoro-7-[(3R)-3-hydroxypyrrolidin-1-yl]-3-({[(3S)-1-(6-methylpyridin-3-yl)piperidin-3-yl][(2-methylpyridin-4-yl)methyl]amino}methyl)-1,4-dihydro-1,8-naphthyridin-4-one Hydrochloride] | +++ (ΔTm≥20° C.)
CNC1CCN(c2cc3c(cc2F)c(=O)c(CN(Cc2ccnc(C)c2)[C@H]2CCCN(c4ccc(C)nc4)C2)cn3C2CC2)C1 (stereo partly drawn) [Example 33, 1-cyclopropyl-6-fluoro-7-[3-(methylamino)pyrrolidin-1-yl]-3-({[(3S)-1-(6-methylpyridin-3-yl)piperidin-3-yl][(2-methylpyridin-4-yl)methyl]amino}methyl)-1,4-dihydroquinolin-4-one] | +++ (ΔTm≥20° C.)
Cc1ccc(N2CCC[C@H](N(Cc3ccnc(C)c3)Cc3cn(C4CC4)c4cc(N5CCC[C@H](N)C5)c(F)cc4c3=O)C2)cn1 [Example 16, 7-[(3S)-3-Aminopiperidin-1-yl]-1-cyclopropyl-6-fluoro-3-({[(3S)-1-(6-methylpyridin-3-yl)piperidin-3-yl][(2-methylpyridin-4-yl)methyl]amino}methyl)-1,4-dihydroquinolin-4-one] | +++ (ΔTm≥20° C.)
Cc1cc(CN(Cc2cn(C)c3cc(Br)ccc3c2=O)[C@H]2CCCN(c3ccc(N)nc3)C2)ccn1.Cl [Example 29, 3-({[(3S)-1-(6-aminopyridin-3-yl)piperidin-3-yl][(2-methylpyridin-4-yl)methyl]amino}methyl)-7-bromo-1-methyl-1,4-dihydroquinolin-4-one Hydrochloride] | +++ (ΔTm≥20° C.)
Cc1ccc(N2CCC[C@H](N(Cc3ccnc(C)c3)Cc3cn(C4CC4)c4cc(N5CCCC(C(=O)O)C5)c(F)cc4c3=O)C2)cn1 (stereo partly drawn) [Example 66, 1-[1-cyclopropyl-6-fluoro-3-({[(3S)-1-(6-methylpyridin-3-yl)piperidin-3-yl][(2-methylpyridin-4-yl)methyl]amino}methyl)-4-oxo-1,4-dihydroquinolin-7-yl]piperidine-3-carboxylic Acid] | +++ (ΔTm≥20° C.)
Cc1ccc(N2CCC[C@H](N(Cc3ccnc(C)c3)Cc3cn(C4CC4)c4cc(N5CC[C@H](CN)C5)c(F)cc4c3=O)C2)cn1.Cl [Example 15, 7-[(3R)-3-(Aminomethyl)pyrrolidin-1-yl]-1-cyclopropyl-6-fluoro-3-({[(3S)-1-(6-methylpyridin-3-yl)piperidin-3-yl][(2-methylpyridin-4-yl)methyl]amino}methyl)-1,4-dihydroquinolin-4-one Hydrochloride] | +++ (ΔTm≥20° C.)
Cc1ccc(N2CCC[C@H](N(Cc3ccnc(C)c3)Cc3cn(C4CC4)c4cc(N5CCC(F)(CN)C5)c(F)cc4c3=O)C2)cn1 (stereo partly drawn) [Example 30, 7-[3-(aminomethyl)-3-fluoropyrrolidin-1-yl]-1-cyclopropyl-6-fluoro-3-({[(3S)-1-(6-methylpyridin-3-yl)piperidin-3-yl][(2-methylpyridin-4-yl)methyl]amino}methyl)-1,4-dihydroquinolin-4-one] | +++ (ΔTm≥20° C.)
Cc1cc(CN(Cc2cn(C(C)C)c3cc(N4CC[C@@H](O)C4)ccc3c2=O)[C@H]2CCCN(c3ccnnc3)C2)ccn1 [Example 49, 7-[(3R)-3-hydroxypyrrolidin-1-yl]-3-({[(2-methylpyridin-4-yl)methyl][(3S)-1-(pyridazin-4-yl)piperidin-3-yl]amino}methyl)-1-(propan-2-yl)-1,4-dihydroquinolin-4-one] | + (ΔTm≤10° C.)
Cc1ccc(N2CCC[C@H](N(Cc3ccnc(C)c3)Cc3cn(C4CC4)c4cc(N5CC[C@@H](CN)C5)c(F)cc4c3=O)C2)cn1.Cl [Example 20, 7-[(3S)-3-(aminomethyl)pyrrolidin-1-yl]-1-cyclopropyl-6-fluoro-3-({[(3S)-1-(6-methylpyridin-3-yl)piperidin-3-yl][(2-methylpyridin-4-yl)methyl]amino}methyl)-1,4-dihydroquinolin-4-one Hydrochloride] | +++ (ΔTm≥20° C.)
Cc1ccc(N2CCC[C@H](N(Cc3ccnc(C)c3)Cc3cn(C4CC4)c4cc(N5CCC(O)CC5)c(F)cc4c3=O)C2)cn1.Cl [Example 32, 1-cyclopropyl-6-fluoro-7-(4-hydroxypiperidin-1-yl)-3-({[(3S)-1-(6-methylpyridin-3-yl)piperidin-3-yl][(2-methylpyridin-4-yl)methyl]amino}methyl)-1,4-dihydroquinolin-4-one Hydrochloride] | +++ (ΔTm≥20° C.)
Cc1ccc(N2CCC[C@H](N(Cc3ccnc(C)c3)Cc3cn(C4CC4)c4cc(N5CC(CO)C5)c(F)cc4c3=O)C2)cn1 [Example 27, 1-cyclopropyl-6-fluoro-7-[3-(hydroxymethyl)azetidin-1-yl]-3-({[(3S)-1-(6-methylpyridin-3-yl)piperidin-3-yl][(2-methylpyridin-4-yl)methyl]amino}methyl)-1,4-dihydroquinolin-4-one] | +++ (ΔTm≥20° C.)
CN[C@H]1CCN(c2cc3c(cc2F)c(=O)c(CN(Cc2ccnc(C)c2)[C@H]2CCCN(c4ccc(C)nc4)C2)cn3C2CC2)C1.Cl [Example 58, 1-Cyclopropyl-6-fluoro-7-[(3S)-3-(methylamino)pyrrolidin-1-yl]-3-({[(3S)-1-(6-methylpyridin-3-yl)piperidin-3-yl][(2-methylpyridin-4-yl)methyl]amino}methyl)-1,4-dihydroquinolin-4-one Hydrochloride] | +++ (ΔTm≥20° C.)
CN[C@@H]1CCN(c2cc3c(cc2F)c(=O)c(CN(Cc2ccnc(C)c2)[C@H]2CCCN(c4ccc(C)nc4)C2)cn3C2CC2)C1.Cl [Example 55, 1-Cyclopropyl-6-fluoro-7-[(3R)-3-(methylamino)pyrrolidin-1-yl]-3-({[(3S)-1-(6-methylpyridin-3-yl)piperidin-3-yl][(2-methylpyridin-4-yl)methyl]amino}methyl)-1,4-dihydroquinolin-4-one Hydrochloride] | +++ (ΔTm≥20° C.)
Cc1cc(CN(Cc2cn(C)c3ccccc3c2=O)[C@H]2CCCN(c3ccc(CN)nc3)C2)ccn1.Cl [Example 3, 3-({[(3S)-1-[6-(Aminomethyl)pyridin-3-yl]piperidin-3-yl][(2-methylpyridin-4-yl)methyl]amino}methyl)-1-methyl-1,4-dihydroquinolin-4-one Hydrochloride] | + (ΔTm≤10° C.)
Cc1ccc(N2CCC[C@H](N(Cc3ccnc(C)c3)Cc3cn(C4CC4)c4cc(N5CCC[C@@H](N)C5)c(F)cc4c3=O)C2)cn1 [Example 17, 7-[(3R)-3-Aminopiperidin-1-yl]-1-cyclopropyl-6-fluoro-3-({[(3S)-1-(6-methylpyridin-3-yl)piperidin-3-yl][(2-methylpyridin-4-yl)methyl]amino}methyl)-1,4-dihydroquinolin-4-one] | +++ (ΔTm≥20° C.)
Cc1ccc(N2CCC[C@H](N(Cc3ccnc(C)c3)Cc3cn(C4CC4)c4cc(NCCN(C)C)c(F)cc4c3=O)C2)cn1 [Example 9, 1-Cyclopropyl-7-{[2-(dimethylamino)ethyl]amino}-6-fluoro-3-({[(3S)-1-(6-methylpyridin-3-yl)piperidin-3-yl][(2-methylpyridin-4-yl)methyl]amino}methyl)-1,4-dihydroquinolin-4-one] | +++ (ΔTm≥20° C.)
Cc1ccc(N2CCC[C@H](N(Cc3ccnc(C)c3)Cc3cn(C4CC4)c4cc(NCCN)c(F)cc4c3=O)C2)cn1 [Example 8, 7-[(2-Aminoethyl)amino]-1-cyclopropyl-6-fluoro-3-({[(3S)-1-(6-methylpyridin-3-yl)piperidin-3-yl][(2-methylpyridin-4-yl)methyl]amino}methyl)-1,4-dihydroquinolin-4-one] | +++ (ΔTm≥20° C.)
Cc1cnc(N2C[C@@H](F)C[C@H](N(Cc3ccnc(C)c3)Cc3cn(C4CC4)c4cc(N5CCC[C@H](O)C5)c(F)cc4c3=O)C2)cn1 [Example 82, 1-cyclopropyl-6-fluoro-3-({[(3S,5S)-5-fluoro-1-(5-methylpyrazin-2-yl)piperidin-3-yl][(2-methylpyridin-4-yl)methyl]amino}methyl)-7-[(3S)-3-hydroxypiperidin-1-yl]-1,4-dihydroquinolin-4-one] | ++ (10<ΔTm<20° C.)
